The values that follow come from article PMC12388496, “Discovery of (E)-1,3-Diphenyl-2-Propen-1-One Derivatives as Potent and Orally Active NLRP3 Inflammasome Inhibitors for Colitis” (Molecules, 2025).

One experiment relates to AIM2 inflammasome. The experiment in a line: AIM2 inflammasome activation induced by poly (dA:dT) in BMDMs. In kind it is cell-based, mouse. The following applies: F14 10 μM, LPS-primed BMDMs. The text has this: The NLRP3 inflammasome can be activated by various stimuli, such as microbial toxins and urate crystals. This process plays a central role in the pathogenesis of many inflammatory diseases. To assess whether F14 exerts a broad-spectrum inhibitory effect on NLRP3 inflammasome activation, we used three different activators—ATP, MSU, and Nigericin to stimulate BMDMs. […] Among the inflammasome family, NLRC4 and AIM2 are also protein complexes involved in the innate immune response, playing key roles in inflammatory regulation during infection and tissue damage. Poly (dA:dT) was used to induce AIM2 activation, while S.typhi was employed to stimulate NLRC4 activation. […].
The LPS concentration was 200 ng/mL to pretreat BMDM cells for 3 h, then F14 (10 μM) was added to treat the cells for 30 min, and then each inducer—Nigericin (10 μM, 0.5 h), ATP (2.5 mM, 0.5 h), MSU (150 μg/mL, 4 h), S.typhi (4 h), and poly-(dA:dT) (0.5 μg/mL, 4 h)—were added for stimulation. (A) F14 has a broad-spectrum inhibitory effect on NLRP3 inflammasome activation. (B) F14 has a specific inhibitory effect on NLRP3 inflammasome activation. Data are presented as the mean ± SEM (n = 3). *** p < 0.001 vs. the model group. NS, not significant.

The test system of experiment [1] is DSS-induced acute colitis. The experiment in a line: DSS-induced acute colitis in mice. In kind it is in vivo, mouse. Conditions: 10 and 20 mg/kg daily, gavage. Here is the method: To further validate the in vivo biological activity of compound F14, we used the DSS-induced mouse colitis model to assess its anti-inflammatory effects. The experimental design was as follows: mice were divided into the normal group, model group (DSS), positive control group (DSS + sulfasalazine), low-dose group (DSS + 10 mg/kg), and high-dose group (DSS + 20 mg/kg). Mice in the normal group were given regular water with no treatment; the positive control group received sulfasalazine as the positive drug at a daily dose of 200 mg/kg; the low-dose and high-dose groups were administered 10 mg/kg and 20 mg/kg of F14, respectively, each day. During the experiment, acute colitis in mice was induced by drinking water containing 3% DSS […]. The mice’s body weight changes, fecal blood presence, and disease activity index (DAI) were recorded daily. […] Goblet cells are a type of colon epithelial cell, and their primary function is to secrete mucus, which helps maintain the stability of the intestinal environment. During the pathological process of colitis, the number of goblet cells decreased, and their mucus-secreting function was impaired. In histological examinations, the number and secretion function of goblet cells are important indicators of colitis.
Male C57BL/6 mice, 18–20 g, were purchased from Charles River (China). All experiments and animal care procedures were approved by the Animal Resource Center of Anhui Medical University by the National Institutes of Health Guide for the Care and Use of Laboratory Animals (20230875). This study used DSS induction to establish an acute colitis model in mice. Mice in the experimental group were given free access to a 3% DSS solution for 7 days to induce an intestinal inflammation phenotype. The positive control group (sulfasalazine, 200 mg/kg) and the treatment group were gavage administration daily, using a 0.5% carboxymethyl cellulose sodium (CMC-Na) solution as the drug vehicle. The normal control and model groups received an equal volume of blank CMC-Na solution. Daily monitoring of weight changes and clinical symptoms was performed during the experimental period, including fecal characteristics (formed/loose/watery stools) and the degree of rectal bleeding (occult blood/gross blood in feces). On day 10, at the end of the experiment, the colonic sections of the mice were carefully excised. The excised colon was examined, and the length of the colon was measured. Some colon tissues were fixed in 4% formaldehyde and used for HE staining and immunohistochemical analysis for subsequent evaluations.

In a further experiment the test system is BMDM cells. The experiment in a line: MitoTracker/MitoSOX staining and ROS detection (DCFH-DA flow cytometry) in BMDMs. The following applies: LPS and Nigericin. It is filed as cell-based, mouse. The text has this: Mitochondrial dysfunction and excessive production of reactive oxygen species (ROS) are key upstream signaling events in the activation of the NLRP3 inflammasome. To investigate whether compound F14 affects mitochondrial damage and ROS production, we performed staining experiments using MitoTracker and MitoSOX, followed by imaging and analysis using a confocal microscope. […] To further verify the effect of F14 on ROS levels, we used flow cytometry to measure intracellular ROS levels in BMDM cells stimulated with Nigericin.
BMDMs were seeded at a density of 1.0 × 10^6 cells per well in a 6-well plate, and the cell treatment was performed as described above. DCFH-DA probe was added to each well at a 1:1000 dilution (prepared in serum-free medium), and the cells were incubated at 37 °C in the dark for 20 min. The cells were gently mixed every 5 min to ensure uniform probe penetration. The cells were washed three times with PBS, and ROS levels were measured using flow cytometry (excitation/emission wavelengths: 488/525 nm).
Background: Flow cytometry measures light scatter and fluorescence of single cells or particles in a stream.

In the case of `Cc1ccc(C(=O)/C=C/c2cccc(O)c2)c(C)c1` [Compound F14, (E)-1-(2,4-dimethylphenyl)-3-(3-hydroxyphenyl)propyl-2-en-1-one], the “activation of AIM2 inflammasome” value in the experiment with AIM2 inflammasome is given as “no effect”. Moreover, in experiment [1] (DSS mice), the colonic adhesion result was “effectively alleviated” and the “goblet cells in colon tissue (histology)” value was “inhibits the reduction”. Also, in experiment [1] (vs model group (DSS)), the “disease activity index (DAI)” value is reported as “inhibits the increase” and the “weight loss in mice” value is listed as “significantly alleviates”. The “mitochondrial membrane potential and fluorescence intensity of mitochondrial superoxide anions” value in the experiment on BMDM cells (MitoTracker, MitoSOX) was “no significant improvement”. Further, in the experiment with BMDM cells (flow cytometry), the “total ROS levels” value is “no significant change”.
